# From ChEMBL document CHEMBL5390253, “Discovery of Selective and Potent Macrocyclic CDK9 Inhibitors for the Treatment of Osimertinib-Resistant Non-Small-Cell Lung Cancer” (J Med Chem, 2023)
# Active and inactive are the calls of the source. The calls are words filed in the database; no cut-off is given here.
# Key:
# [1] = Antiproliferative activity against human Osimertinib-resistant NCI-H1975 cell incubated for 72 hrs by MTT assay; type: functional, cell-based; details: NCI-H1975, 72 h
# [2] = Toxicity in ICR mouse assessed as effect on physical appearance at 1000 mg/kg, po measured for 8 to 9 days; type: organism-based; details: in vivo, time 8-9 day
# NCI-H1975 [3] = test: Downregulation of Mcl-1 level in human Osimertinib-resistant NCI-H1975 cell measured after 8 hrs by Western blotting analysis; type: functional, cell-based; details: dose 0.05-2 µM
# [4] = target: CDK1/Cyclin E (Homo sapiens) (UniProt P06493+P24864); test: Inhibition of CDK1/Cyclin E1 (unknown origin) at 200 nM preincubated for 10 mins followed by substrate addition and measured after 60 mins in presence of ATP by ADP-Glo reagent based assay relative to control; type: protein-complex assay; details: time 70.0 min
# [5] = Metabolic stability in human liver microsomes assessed as half life at 10 uM measured at 5 to 60 mins by LC-MS/MS analysis; type: ADME, Microsome; details: time 5-60 min
# NCI-H1975 [6] = test: Induction of apoptosis in human Osimertinib-resistant NCI-H1975 cell assessed as increase in percentage of apoptotic cells measured after 16 hrs by Annexin V-FITC and PI staining based analysis; type: functional; details: dose 125-2000 nM
# [7] = target: Cyclin-dependent kinase 1/cyclin B1 (Homo sapiens) (UniProt P06493+P14635); test: Inhibition of CDK1/Cyclin B1 (unknown origin) at 200 nM preincubated for 10 mins followed by substrate addition and measured after 60 mins in presence of ATP by ADP-Glo reagent based assay relative to control; type: protein-complex assay; details: time 70.0 min
# [8] = target: CDK18/Cyclin Y (Homo sapiens) (UniProt Q07002+Q8ND76); test: Inhibition of CDK18/cyclin Y (unknown origin) at 200 nM preincubated for 10 mins followed by substrate addition and measured after 60 mins in presence of ATP by ADP-Glo reagent based assay relative to control; type: protein-complex assay; details: time 70.0 min
# [9] = Induction of apoptosis in human Osimertinib-resistant NCI-H1975 cell assessed as necrotic cells at 125 nM measured after 16 hrs by Annexin V-FITC and PI staining based analysis (reference value: 0.50%); type: functional
# [10] = Antitumor activity against patient derived #2862 lung cancer organoid assessed as inhibition of growth measured after 4 days; type: functional, tissue-based; details: Homo sapiens, 96 h
# [11] = target: Mitogen-activated protein kinase 15 (Homo sapiens) (UniProt Q8TD08); test: Inhibition of ERK7 (unknown origin) at 500 nM preincubated for 10 mins followed by substrate addition and measured after 60 mins in presence of ATP by ADP-Glo reagent based assay relative to control; details: time 70.0 min
# [12] = Apparent volume of distribution in Sprague-Dawley rat at 2 mg/kg, iv measured upto 24 hrs; type: ADME, organism-based; details: in vivo, read-out: Vz
# [13] = Downregulation of Mcl-1 in human NCI-H1975 cells at 500 nM relative to control; type: functional
# [14] = target: Tyrosine-protein kinase JAK2 (Homo sapiens) (UniProt O60674); test: Inhibition of JAK2 (unknown origin) at 100 nM preincubated for 10 mins followed by substrate addition and measured after 60 mins in presence of ATP by ADP-Glo reagent based assay relative to control; details: time 70.0 min
# [15] = Inhibition of colony formation in human Osimertinib-resistant NCI-H1975 cell assessed as inhibition of cell growth at 125 nM measured after 2 weeks by crystal violet staining based analysis relative to control; type: functional; details: NCI-H1975, 336 h
# CDK2/Cyclin A2 = CDK2/Cyclin A2 (Homo sapiens, UniProt P24941); test: Inhibition of CDK2/Cyclin A2 (unknown origin) preincubated for 10 mins followed by substrate addition and measured after 60 mins in presence of ATP by ADP-Glo reagent based assay; type: protein-complex assay
# [16] = target: CDK9/cyclin T1 (Homo sapiens) (UniProt O60563+P50750); test: Inhibition of CDK9/cyclin T1 (unknown origin) at 200 nM preincubated for 10 mins followed by substrate addition and measured after 60 mins in presence of ATP by ADP-Glo reagent based assay relative to control; type: protein-complex assay; details: time 70.0 min
# [17] = Antiproliferative activity against 3D-cultured human Osimertinib-resistant NCI-H1975 cell incubated for 72 hrs by MTT assay; type: functional, cell-based; details: NCI-H1975, 72 h
# CDK9/cyclin T1 = CDK9/cyclin T1 (Homo sapiens, UniProt P50750); test: Inhibition of CDK9/Cyclin-T1 (unknown origin) preincubated for 10 mins followed by substrate addition and measured after 60 mins in presence of ATP by ADP-Glo reagent based assay; type: protein-complex assay
# NCI-H1975 [18] = test: Downregulation of Bcl-2 level in human Osimertinib-resistant NCI-H1975 cell at 125 nM measured after 16 hrs in presence of osimertinib by Western blot analysis; type: functional, cell-based
# [19] = target: Dual specificity protein kinase CLK2 (Homo sapiens) (UniProt P49760); test: Inhibition of CLK2 (unknown origin) at 100 nM preincubated for 10 mins followed by substrate addition and measured after 60 mins in presence of ATP by ADP-Glo reagent based assay relative to control; details: time 70.0 min
# NCI-H1975 [20] = test: Downregulation of Mcl-1 level in human Osimertinib-resistant NCI-H1975 cell at 500 nM measured after 2 hrs by Western blotting analysis; type: functional, cell-based
# A549 = test: Antiproliferative activity against human A549 cells incubated for 72 hrs by MTT assay; type: functional, cell-based; details: A549, 72 h
# NCI-H1975 [21] = test: Downregulation of Bcl-2 level in human Osimertinib-resistant NCI-H1975 cell measured after 16 hrs by Western blot analysis; type: functional, cell-based; details: dose 125-2000 nM
# [22] = Antitumor activity against patient derived #0416 lung cancer organoid assessed as inhibition of growth measured after 4 days; type: functional, tissue-based; details: Homo sapiens, 96 h
# [23] = Induction of apoptosis in human Osimertinib-resistant NCI-H1975 cell assessed as necrotic cells at 2000 nM measured after 16 hrs by Annexin V-FITC and PI staining based analysis (reference value: 0.50%); type: functional
# [24] = target: CDK7/Cyclin H/MNAT1 (Homo sapiens) (UniProt P51946+P50613+P51948); test: Inhibition of CDK7/Cyclin H/MAT1 (unknown origin) at 200 nM preincubated for 10 mins followed by substrate addition and measured after 60 mins in presence of ATP by ADP-Glo reagent based assay relative to control; type: protein-complex assay; details: time 70.0 min
# [25] = target: Homeodomain-interacting protein kinase 1 (Homo sapiens) (UniProt Q86Z02); test: Inhibition of HIPK1 (unknown origin) at 500 nM preincubated for 10 mins followed by substrate addition and measured after 60 mins in presence of ATP by ADP-Glo reagent based assay relative to control; details: time 70.0 min
# [26] = Solubility of the compound in water at pH 7.4 by shake flask method; type: physicochemical
# [27] = Oral bioavailability in Sprague-Dawley rat at 20 mg/kg measured upto 24 hrs; type: ADME, organism-based; details: in vivo
# [28] = target: Glycogen synthase kinase-3 beta (Homo sapiens) (UniProt P49841); test: Inhibition of GSK3beta (unknown origin) at 500 nM preincubated for 10 mins followed by substrate addition and measured after 60 mins in presence of ATP by ADP-Glo reagent based assay relative to control; details: time 70.0 min
# [29] = Induction of apoptosis in human Osimertinib-resistant NCI-H1975 cell assessed as viable cells at 2000 nM measured after 16 hrs by Annexin V-FITC and PI staining based analysis (reference value: 94.9%); type: functional; details: read-out: Activity
# Chain of Tyrosine-protein kinase JAK2 (Homo sapiens) (O60674 whole entry): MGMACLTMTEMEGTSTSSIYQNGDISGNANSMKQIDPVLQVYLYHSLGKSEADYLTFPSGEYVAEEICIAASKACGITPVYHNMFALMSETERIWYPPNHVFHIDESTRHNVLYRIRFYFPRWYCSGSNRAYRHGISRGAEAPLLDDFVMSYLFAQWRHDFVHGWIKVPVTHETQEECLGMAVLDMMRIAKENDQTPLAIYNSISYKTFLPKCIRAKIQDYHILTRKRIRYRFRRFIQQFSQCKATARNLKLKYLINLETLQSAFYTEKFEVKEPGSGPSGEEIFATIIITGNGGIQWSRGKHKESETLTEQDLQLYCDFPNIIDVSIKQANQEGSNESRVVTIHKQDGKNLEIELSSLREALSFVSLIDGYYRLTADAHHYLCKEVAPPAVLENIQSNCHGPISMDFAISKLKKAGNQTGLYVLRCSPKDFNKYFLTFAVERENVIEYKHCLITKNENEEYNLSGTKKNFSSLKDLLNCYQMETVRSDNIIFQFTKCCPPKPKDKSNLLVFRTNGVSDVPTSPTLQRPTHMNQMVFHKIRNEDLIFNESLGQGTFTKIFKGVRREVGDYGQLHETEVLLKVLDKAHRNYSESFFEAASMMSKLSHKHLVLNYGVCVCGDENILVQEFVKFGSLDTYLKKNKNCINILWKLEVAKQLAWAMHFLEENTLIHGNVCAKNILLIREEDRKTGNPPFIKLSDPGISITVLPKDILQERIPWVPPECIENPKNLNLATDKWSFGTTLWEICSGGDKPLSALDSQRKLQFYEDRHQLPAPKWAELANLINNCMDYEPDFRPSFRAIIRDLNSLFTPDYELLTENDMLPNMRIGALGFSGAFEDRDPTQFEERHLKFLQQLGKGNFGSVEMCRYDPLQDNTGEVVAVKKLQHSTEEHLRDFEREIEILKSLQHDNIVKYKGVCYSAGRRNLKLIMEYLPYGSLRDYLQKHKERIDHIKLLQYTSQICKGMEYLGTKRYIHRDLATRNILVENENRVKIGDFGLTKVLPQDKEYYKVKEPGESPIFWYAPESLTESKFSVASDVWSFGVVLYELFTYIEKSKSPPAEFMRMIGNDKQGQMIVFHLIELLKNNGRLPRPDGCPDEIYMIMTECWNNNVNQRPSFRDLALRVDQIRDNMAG
# Chain of Glycogen synthase kinase-3 beta (Homo sapiens) (P49841 whole entry, looked up): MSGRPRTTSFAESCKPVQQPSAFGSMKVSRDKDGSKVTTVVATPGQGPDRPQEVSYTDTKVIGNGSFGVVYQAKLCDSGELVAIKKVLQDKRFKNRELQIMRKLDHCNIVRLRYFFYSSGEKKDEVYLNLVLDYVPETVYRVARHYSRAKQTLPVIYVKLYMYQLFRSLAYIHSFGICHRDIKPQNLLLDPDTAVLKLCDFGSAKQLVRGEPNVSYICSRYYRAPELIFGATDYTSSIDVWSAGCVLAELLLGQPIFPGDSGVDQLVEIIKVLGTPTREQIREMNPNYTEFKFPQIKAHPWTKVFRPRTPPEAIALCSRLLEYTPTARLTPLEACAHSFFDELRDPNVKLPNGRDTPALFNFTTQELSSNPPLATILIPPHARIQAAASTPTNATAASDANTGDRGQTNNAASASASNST
# Chain of CDK9/cyclin T1 (O60563 whole entry): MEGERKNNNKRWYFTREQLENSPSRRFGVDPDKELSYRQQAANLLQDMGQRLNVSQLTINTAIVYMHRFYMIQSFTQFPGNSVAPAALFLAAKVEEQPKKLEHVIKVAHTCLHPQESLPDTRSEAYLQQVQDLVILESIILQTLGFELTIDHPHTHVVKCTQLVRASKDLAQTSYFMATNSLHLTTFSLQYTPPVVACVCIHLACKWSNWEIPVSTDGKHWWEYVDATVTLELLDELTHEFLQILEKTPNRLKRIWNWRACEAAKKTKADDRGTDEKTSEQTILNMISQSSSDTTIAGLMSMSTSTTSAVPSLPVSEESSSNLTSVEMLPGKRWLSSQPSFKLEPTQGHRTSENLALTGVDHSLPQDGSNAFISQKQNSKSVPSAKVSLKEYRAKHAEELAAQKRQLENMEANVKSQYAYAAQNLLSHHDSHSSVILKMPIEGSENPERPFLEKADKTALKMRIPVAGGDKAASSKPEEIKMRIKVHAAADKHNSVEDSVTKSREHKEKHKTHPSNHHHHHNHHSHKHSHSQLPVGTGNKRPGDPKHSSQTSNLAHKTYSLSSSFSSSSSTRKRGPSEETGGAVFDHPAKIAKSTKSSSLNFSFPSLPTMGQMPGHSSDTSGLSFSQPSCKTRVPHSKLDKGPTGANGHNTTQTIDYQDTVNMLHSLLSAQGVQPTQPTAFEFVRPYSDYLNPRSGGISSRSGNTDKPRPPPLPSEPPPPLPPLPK
# Chain of CDK9/cyclin T1 (P50750 whole entry): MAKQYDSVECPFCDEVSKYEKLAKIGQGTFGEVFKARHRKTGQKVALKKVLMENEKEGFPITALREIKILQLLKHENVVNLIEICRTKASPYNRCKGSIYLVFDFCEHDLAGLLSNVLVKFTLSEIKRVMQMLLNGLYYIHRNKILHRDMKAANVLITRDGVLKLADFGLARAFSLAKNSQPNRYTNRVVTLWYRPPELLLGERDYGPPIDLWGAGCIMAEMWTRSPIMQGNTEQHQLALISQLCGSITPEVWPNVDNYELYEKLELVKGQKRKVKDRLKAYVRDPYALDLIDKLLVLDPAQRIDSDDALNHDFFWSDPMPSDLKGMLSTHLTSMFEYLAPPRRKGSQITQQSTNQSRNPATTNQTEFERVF
# Chain of Mitogen-activated protein kinase 15 (Homo sapiens) (Q8TD08 whole entry): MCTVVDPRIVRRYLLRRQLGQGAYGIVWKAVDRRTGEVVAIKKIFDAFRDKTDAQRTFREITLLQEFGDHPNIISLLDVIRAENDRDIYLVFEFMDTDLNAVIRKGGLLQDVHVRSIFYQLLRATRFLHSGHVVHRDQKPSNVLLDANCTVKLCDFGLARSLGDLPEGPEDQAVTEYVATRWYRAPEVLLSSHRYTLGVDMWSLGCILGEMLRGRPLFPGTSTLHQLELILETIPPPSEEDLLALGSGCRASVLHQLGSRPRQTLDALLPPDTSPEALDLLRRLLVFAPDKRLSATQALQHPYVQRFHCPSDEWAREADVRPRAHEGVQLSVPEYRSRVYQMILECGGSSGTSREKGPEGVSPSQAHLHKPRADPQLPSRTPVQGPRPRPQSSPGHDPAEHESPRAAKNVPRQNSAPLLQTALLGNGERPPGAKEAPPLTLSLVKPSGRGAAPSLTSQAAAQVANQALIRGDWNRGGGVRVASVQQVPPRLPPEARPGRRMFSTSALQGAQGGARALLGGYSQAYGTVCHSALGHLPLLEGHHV
# Chain of Dual specificity protein kinase CLK2 (Homo sapiens) (P49760 whole entry, looked up): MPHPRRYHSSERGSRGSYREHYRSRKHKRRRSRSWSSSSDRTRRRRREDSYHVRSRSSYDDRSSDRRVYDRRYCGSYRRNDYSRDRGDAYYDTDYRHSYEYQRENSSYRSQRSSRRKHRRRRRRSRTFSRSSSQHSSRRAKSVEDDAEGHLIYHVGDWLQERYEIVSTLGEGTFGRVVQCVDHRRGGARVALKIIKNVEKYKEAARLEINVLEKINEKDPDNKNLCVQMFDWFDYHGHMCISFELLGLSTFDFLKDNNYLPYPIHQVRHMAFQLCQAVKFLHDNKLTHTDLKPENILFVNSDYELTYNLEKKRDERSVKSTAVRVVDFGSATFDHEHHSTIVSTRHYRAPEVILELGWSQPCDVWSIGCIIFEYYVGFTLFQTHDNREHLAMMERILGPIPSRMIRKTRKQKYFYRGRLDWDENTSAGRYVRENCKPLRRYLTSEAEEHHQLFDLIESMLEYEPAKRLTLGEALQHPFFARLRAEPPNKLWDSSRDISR
# Chain of CDK1/Cyclin E (Homo sapiens) (P06493 whole entry, looked up): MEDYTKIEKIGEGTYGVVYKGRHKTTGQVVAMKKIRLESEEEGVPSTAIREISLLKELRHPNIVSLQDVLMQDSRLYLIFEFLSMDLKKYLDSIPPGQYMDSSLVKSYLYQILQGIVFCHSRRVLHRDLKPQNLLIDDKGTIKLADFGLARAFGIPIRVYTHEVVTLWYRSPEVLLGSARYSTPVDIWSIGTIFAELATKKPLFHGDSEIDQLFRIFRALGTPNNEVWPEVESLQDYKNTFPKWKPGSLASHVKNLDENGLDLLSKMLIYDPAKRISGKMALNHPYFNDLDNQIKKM
# Chain of CDK1/Cyclin E (Homo sapiens) (P24864 whole entry, looked up): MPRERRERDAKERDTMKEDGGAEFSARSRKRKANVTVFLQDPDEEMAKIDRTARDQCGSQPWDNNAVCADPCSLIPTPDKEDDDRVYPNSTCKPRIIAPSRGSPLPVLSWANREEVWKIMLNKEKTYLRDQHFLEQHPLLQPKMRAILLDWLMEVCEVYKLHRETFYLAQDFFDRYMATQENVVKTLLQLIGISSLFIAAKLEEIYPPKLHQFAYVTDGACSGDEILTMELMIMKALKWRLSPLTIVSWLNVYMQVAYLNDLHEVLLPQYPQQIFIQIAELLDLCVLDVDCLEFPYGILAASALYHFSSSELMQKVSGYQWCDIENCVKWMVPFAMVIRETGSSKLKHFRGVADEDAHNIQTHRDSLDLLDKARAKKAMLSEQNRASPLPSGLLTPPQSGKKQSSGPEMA
smiles,measurement,setting,value
O=C(NCCN1CCOCC1)c1ccc2cc1OCCCCCCOc1cc(ccc1F)-c1nc(ncc1F)N2,IC50,[1],251 nM
same,Activity,[2],Non-Toxic
same,Activity,NCI-H1975 [3],Dose-Dependent Effect
same,inhibition,[4],16.4%
same,half-life at 10 µM,[5],10.7 min
same,Activity,NCI-H1975 [6],Dose-Dependent Effect
same,inhibition,[7],33%
same,inhibition,[8],12%
same,Activity,[9],3.25%
same,IC50,[10],940 nM
same,inhibition,[11],83.5%
same,Vd,[12],12 L/kg
same,Activity,[13],75.6%
same,inhibition,[14],23.3%
same,inhibition at 0.125 µM,[15],100%
same,IC50,CDK2/Cyclin A2,209 nM
same,inhibition,[16],99.3%
same,IC50,[17],< 50 nM
same,IC50,CDK9/cyclin T1,3.2 nM
same,Activity,NCI-H1975 [18],Active
same,inhibition,[19],32.8%
same,Activity,NCI-H1975 [20],Active
same,IC50,A549,409 nM
same,Activity,NCI-H1975 [21],Dose-Dependent Effect
same,IC50,[22],79 nM
same,Activity,[23],1.97%
same,inhibition,[24],12.8%
same,inhibition,[25],96%
same,solubility thermodynamic,[26],626 µg/mL
same,bioavailability,[27],8%
same,inhibition,[28],93.9%
same,viability at 2 µM,[29],65.5%
